The source of these data is paper PMC9039177 (Frontiers in Chemistry, 2022).

In brackets after ≈: the same amount, converted by molar mass. Several values for one entry are separate records, joined by “and”; a condition that tells them apart may be missing. Equal entries are not always repeated. Entries after “also recorded” stand apart in the source; their conditions may differ. Where two headings read alike, the source gives them in different places.

One data set relates to Calu-3 cells. To be noted: cited from earlier work.
A further data set concerns the target human USP21 (Homo sapiens, UniProt Q9UK80). Briefly: biochemical.
Data set [1] deals with SARS-CoV-2. To be noted: cited from earlier work.
The target in data set [2] is T1, SARS-CoV-2 PLpro (Severe acute respiratory syndrome coronavirus 2, UniProt P0DTD1). As to conditions: read-out: IC50 against PLpro; cited from earlier work.
In data set [3] the target is T1, SARS-CoV-2 PLpro. Briefly: biochemical.
For data set [4], the target named is T2, MERS-CoV PLpro (Middle East respiratory syndrome-related coronavirus, UniProt K9N7C7). Briefly: biochemical.
T2 sequence (K9N7C7 1482-1803 limits assumed): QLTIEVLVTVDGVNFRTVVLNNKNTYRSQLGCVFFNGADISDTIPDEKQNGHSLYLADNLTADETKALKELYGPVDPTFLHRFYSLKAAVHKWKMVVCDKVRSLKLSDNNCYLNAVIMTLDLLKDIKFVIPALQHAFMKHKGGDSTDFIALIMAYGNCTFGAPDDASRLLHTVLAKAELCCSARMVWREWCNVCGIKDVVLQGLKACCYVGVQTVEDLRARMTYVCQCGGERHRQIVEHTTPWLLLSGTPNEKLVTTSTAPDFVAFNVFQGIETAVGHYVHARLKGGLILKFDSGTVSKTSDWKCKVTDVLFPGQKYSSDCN
Data set [5] addresses T1, SARS-CoV-2 PLpro. Briefly: biochemical. The data set is classed as binding.
Data set [6] relates to SARS-CoV-2. The data set is classed as cell-based.
In data set [7] the target is T3, SARS-CoV PLpro (Severe acute respiratory syndrome coronavirus, UniProt P0C6X7). Briefly: biochemical. The data set is classed as binding.
The target of data set [8] is T3, SARS-CoV PLpro. Briefly: biochemical.
A short description of another data set: physchem. As to conditions: kinetic from dmso stock.
The target in data set [9] is T2, MERS-CoV PLpro. Briefly: biochemical. Type of data set: binding.
A short description of data set [10]: in vitro. To be noted: mouse, microsomes, pH 7.4.
Data set [11] can be described thus: in vitro. As to conditions: human, microsomes, pH 7.4.
Data set [12] relates to human DUBs (panel of 41 enzymes). Type of data set: biochemical.
The nature of data set [13]: in vitro. As to conditions: human, Caco-2, pH 7.4.

Chain of human USP21 (Q9UK80 whole entry): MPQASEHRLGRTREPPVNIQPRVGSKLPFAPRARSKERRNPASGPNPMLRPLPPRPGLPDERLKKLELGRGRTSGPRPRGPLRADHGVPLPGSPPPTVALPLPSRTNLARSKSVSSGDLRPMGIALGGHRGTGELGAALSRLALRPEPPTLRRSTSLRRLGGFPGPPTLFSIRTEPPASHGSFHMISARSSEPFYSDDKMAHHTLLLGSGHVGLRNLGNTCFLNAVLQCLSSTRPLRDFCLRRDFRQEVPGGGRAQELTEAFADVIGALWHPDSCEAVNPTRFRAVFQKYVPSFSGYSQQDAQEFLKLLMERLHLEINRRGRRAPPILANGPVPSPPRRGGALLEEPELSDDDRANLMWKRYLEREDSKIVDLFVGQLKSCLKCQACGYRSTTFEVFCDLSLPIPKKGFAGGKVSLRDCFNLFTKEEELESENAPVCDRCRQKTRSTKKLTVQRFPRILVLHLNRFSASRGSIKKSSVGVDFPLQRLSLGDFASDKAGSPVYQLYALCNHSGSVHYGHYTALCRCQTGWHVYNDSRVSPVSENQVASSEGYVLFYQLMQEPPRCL

Turning to `COc1cc(CNC(=O)C2CCN(C(C)c3cccc4ccccc34)CC2)ccn1` (stereo not drawn) [rac5c], in the data set with Calu-3 cells, the “cytotoxicity, no evidence up to” value is on record as greater than 33 µM. Besides, the IC50 was greater than 98 µM against human USP21, 0.6 to 0.8 µM on SARS-CoV-2 PLpro [2] and 0.79 µM on SARS-CoV-2 PLpro [3] (PLpro IC50). Besides, the “decrease of SARS-CoV-2 viral titers (TCID50)” value in the data set on SARS-CoV-2 [1] is given as 2-3 orders of magnitude.

Regarding `CC(c1cccc2ccccc12)N1CCC(C(=O)NCc2cccc(F)c2)CC1` (stereo not drawn) [rac3k], the IC50 is greater than 98 µM at human USP21, 0.6 to 0.8 µM at SARS-CoV-2 PLpro [2] and 1.5 µM against SARS-CoV-2 PLpro [3] (PLpro IC50). In addition, in the data set with SARS-CoV-2 [1], the “decrease of SARS-CoV-2 viral titers (TCID50)” value is on record as 2-3 orders of magnitude.

Regarding `COc1cc(CNC(=O)C2CCN([C@H](C)c3cccc4ccccc34)CC2)ccn1` [Compound 5c], the “Mouse plasma protein binding” value is 86.3 % bound. Further, the IC50 at MERS-CoV PLpro [4] was greater than 98 µM. The molecule further registered a Kd on SARS-CoV-2 PLpro [5] (KD Exp1, SARS-CoV-2 PLpro WT) of 4.11 µM. For the same molecule, binding on SARS-CoV-2 PLpro [5] (KD Exp2, SARS-CoV-2 PLpro WT) was put at a Kd of 2.45 µM. The affinity on SARS-CoV-2 PLpro [5] (KD Exp3, SARS-CoV-2 PLpro WT), expressed as Kd, was 2.6 µM. This molecule gave a Kd on SARS-CoV-2 PLpro [5] (KD, SARS-CoV-2) of 3.05 ± 0.92 µM. Also, the “reduction of viral titer” value with SARS-CoV-2 [6] came to 1 log. This molecule also displayed a Kd on SARS-CoV PLpro [7] (KD Exp1, SARS-CoV) of 0.833 µM. At SARS-CoV PLpro [7] (KD Exp2, SARS-CoV), this molecule registered a Kd of 0.88 µM. The molecule also had a Kd at SARS-CoV PLpro [7] (KD Exp3, SARS-CoV) of 0.853 µM. Further, the Kd on SARS-CoV PLpro [7] (KD, SARS-CoV) was 0.855 µM and 0.86 µM. The molecule also came in with an IC50 at SARS-CoV PLpro [8] of 0.5 µM. In addition, the solubility (kinetic) in “physchem” (pH 2, aqueous buffer) is greater than 0.1 mg/mL. This molecule displayed a kinetic solubility in the data set “physchem” (pH 6.5, aqueous buffer) of 0.05 to 0.1 mg/mL (≈ 124 to 248 µM). The molecule further showed a Kd at MERS-CoV PLpro [9] greater than 20 µM. Further, the Kd at MERS-CoV PLpro [9] (read-out: KD Exp1, MERS-CoV) was greater than 20 µM. At MERS-CoV PLpro [9] (read-out: KD Exp3, MERS-CoV), the Kd is greater than 20 µM. Moreover, in “in vitro [10]”, the half-life came to 20 min and the microsomal CLint worked out at 86 µL/min/mg. For the same molecule, in “in vitro [11]”, the half-life was 16 min and the microsomal CLint is 110 µL/min/mg. Moreover, in the data set on Caco-2 cell monolayers, the “efflux in Caco-2” value is recorded as “no evidence of efflux”. In addition, in [12], the “inhibition of human DUBs” value is listed as “did not inhibit any of the human DUBs tested; also recorded: does not notably inhibit any of the tested human DUBs”. In “in vitro [13]”, this molecule came in with a Papp A→B of 530 nm/s and a Papp B→A of 550 nm/s. The molecule also returned an IC50 against SARS-CoV-2 PLpro [3] (IC50, SARS-CoV-2) of 0.72 µM. Further, the IC50 on SARS-CoV-2 PLpro [3] (calculated IC50) is 0.86 µM.
